Results reported in patent US20260056204A1, “COMPOSITIONS AND METHODS FOR CHEMOPROTEOMIC REAGENT SYNTHESIS AND APPLICATION” (The Regents of the University of California, priority 2023, published 2026).

Test system: cysteines in HEK293T cell lysates
Experiment: competitive ABPP workflow with DADPS capture reagents
Type: biochemical
Excerpt: To obtain an isotopically enriched DADPS capture reagent, the synthesis and application of heavy L-valine (^13C5 ^15N)— containing reagent NBIV-010 was focused on, as the relatively large +6 Da mass difference is ideal for MS1-based quantification. Further motivating the isotopic reagent design, a +6-mass difference is used in isoTOP-ABPP and isoDTB reagents together with the previously reported heavy and light azido-biotin reagents, which was envisioned could facilitate head-to-head comparisons. Using the same synthetic strategy, heavy reagent NBIV-010 was obtained in 58% yield. […] These reagents in a were further validated in a competitive ABPP workflow. Using HEK293T cell lysates, samples were subjected to either vehicle, DMSO, or 500 μM KB02. Upon labeling with IAA and clicking the samples with either heavy or light DADPS probe (NBIV-010 or NBIV-009, respectively; FIG. 4B) or heavy or light biotin azide, the samples were subjected to SP3 cleanup. After enrichment with either streptavidin resin, for DADPS labeled peptides, or NeutrAvidin resin, for biotin azide labeled peptides, the peptides were cleaved or eluted off resin, respectively, and analyzed by LC-MS/MS. […]

SMILES: COc1ccc2c(c1)CCCN2C(=O)CCl [KB02]
- cysteines with ratios>2 shared by DADPS and biotin azide datasets (high confidence KB02-labeled sites) (500 μM KB02): 163
- cysteines found in peptides with Log2 MS1 extracted ion chromatograph area ratios>2 (cysteines modified by KB02; ligandable cysteines) (500 μM KB02 vs DMSO, heavy/light DADPS probes NBIV-010/NBIV-009, three biological replicates): 404
